Measured values taken from patent publication US20260085062A1, “NOVEL COMPOUNDS AS CK2 INHIBITORS” (Cambridge Enterprise Limited, priority 2022, published 2026).

What was measured:
CK2α = target: T1, CK2α (Homo sapiens, UniProt P68400); assay: Biochemical assay for inhibitors of CK2α kinase activity (ADP-Glo); details: 0.2 nM CK2α, 50 μM peptide substrate, 15 μM ATP, read-out: Assay 1: CK2α Enzyme IC50
T1 construct: CK2α (residues 2-329) was produced in Escherichia coli BL21 (DE3) for kinase activity screening; His6 (N, cleaved yes); made in house; host or cells: Escherichia coli BL21 (DE3)
T1 sequence (P68400 2-329): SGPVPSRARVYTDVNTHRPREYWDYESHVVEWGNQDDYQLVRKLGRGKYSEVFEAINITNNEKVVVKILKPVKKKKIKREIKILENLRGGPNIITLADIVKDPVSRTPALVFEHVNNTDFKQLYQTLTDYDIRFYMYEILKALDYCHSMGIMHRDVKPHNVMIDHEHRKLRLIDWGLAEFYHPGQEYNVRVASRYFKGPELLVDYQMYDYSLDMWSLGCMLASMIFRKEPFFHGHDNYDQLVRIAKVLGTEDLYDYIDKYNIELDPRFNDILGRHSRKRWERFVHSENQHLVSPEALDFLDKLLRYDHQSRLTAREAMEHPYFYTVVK
Description: The inhibitory activity of putative kinase inhibitors and the potency of selected compounds were determined using ADP-Glo™ assay. The kinase reaction was performed in the presence of excess peptide substrate and ATP at a concentration equivalent to Km. Upon termination of the kinase reaction, remaining ATP was depleted leaving only ADP reaction product, which was converted back to ATP with a coupled luciferin/luciferase reaction. The luminescent output from the coupled reaction was quantified and correlated with the kinase activity. […] Single colonies of the cells were grown in 6×1 L of 2×TY with 100 μg/mL ampicillin at 37° C. […] The cells were incubated overnight at 25° C. then harvested by centrifugation at 4,000 g for 20 minutes. The cell pellets were suspended in 20 mM Tris, 500 mM NaCl, pH 8.0 and lysed using a high pressure homogenizer. Protease inhibitor cocktail tablets (one tablet per 50 mL extract; Roche Diagnostics) and DNase I were then added. The crude cell extract was then centrifuged at 10,000 g for 45 minutes, the supernatant was filtered with a 0.22 μm filter. The soluble supernatant was applied on a Ni Sepharose Fast Flow6 column at pH 8.0, washed and eluted in 20 mM Tris pH 8.0, 500 mM NaCl, 200 mM imidazole. […] The cleaved protein was further purified on a Sepharose Q HP anion-exchange column and the main peak fraction from this column was further purified by gel filtration on a Superdex 75 16/60 HiPrep column equilibrated with Tris 20 mM, pH 8.0, 500 mM NaCl. Pure protein was concentrated to 15 mg/mL and flash frozen in liquid nitrogen. […] The assay was conducted as follows: • 1. […] After 120 minutes, the reaction was stopped by addition of 5 pl ADP-Glo reagent (Promega V9102) and the plate incubated at RT for a further 60 minutes. • 5. 10 μL of Kinase Detection reagent (Promega V9102) was added to assay plate and incubated for a further 30 minutes prior to reading luminescence on an Envision (Perkin-Elmer). Data was analysed to calculate compound IC50and Ki as follows: • 1. […] Percent activity was calculated for each well using: (Test well reading−MEAN100%inhibition control wells)/(MEAN0% inhibition control wells−MEAN100%inhibition control wells). • 5. Morrison Ki was determined using Morrison Ki equation (XL-fit).

CLK2 = target: T2, CLK2 (Homo sapiens, UniProt P49760); assay: Biochemical assay for inhibitors of CLK2 kinase activity (ADP-Glo); details: 20 nM CLK2, 50 μM peptide substrate, 100 μM ATP, read-out: Assay 2: CLK2 Enzyme IC50
T2 construct: purchased Carna Biosciences 04-127
T2 sequence (P49760 whole entry): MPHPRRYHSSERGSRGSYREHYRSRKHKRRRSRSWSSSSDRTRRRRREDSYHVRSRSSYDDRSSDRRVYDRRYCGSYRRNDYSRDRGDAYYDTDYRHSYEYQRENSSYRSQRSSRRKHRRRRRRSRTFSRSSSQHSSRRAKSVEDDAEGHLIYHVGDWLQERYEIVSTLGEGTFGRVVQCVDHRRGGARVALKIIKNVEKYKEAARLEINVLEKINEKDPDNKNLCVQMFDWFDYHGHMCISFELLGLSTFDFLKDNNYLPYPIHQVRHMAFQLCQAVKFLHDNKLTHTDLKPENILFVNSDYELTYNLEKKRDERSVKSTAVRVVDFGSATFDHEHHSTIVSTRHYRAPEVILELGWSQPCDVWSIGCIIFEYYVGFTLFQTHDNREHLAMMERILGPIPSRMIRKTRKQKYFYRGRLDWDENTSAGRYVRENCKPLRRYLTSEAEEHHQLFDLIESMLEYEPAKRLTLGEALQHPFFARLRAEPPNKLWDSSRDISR
Description: The inhibitory activity of putative kinase inhibitors and the potency of selected compounds were determined using ADP-GloTM assay. The kinase reaction was performed in the presence of excess peptide substrate and ATP at a concentration equivalent to Km. Upon termination of the kinase reaction, remaining ATP was depleted leaving only ADP reaction product, which was converted back to ATP with a coupled luciferin/luciferase reaction. The luminescent output from the coupled reaction was quantified and correlated with the kinase activity. […] The assay was conducted as follows: • 1. […] After 120 minutes, the reaction was stopped by addition of 5 pl ADP-Glo reagent (Promega V9102) and the plate incubated at RT for a further 60 minutes. • 5. 10 μL of Kinase Detection reagent (Promega V9102) was added to assay plate and incubated for a further 30 minutes prior to reading luminescence on an Envision (Perkin-Elmer). Data was analysed to calculate compound IC50and Ki as follows: • 1. […] Morrison Ki was determined using Morrison Ki equation (XL-fit).

intracellular CK2α = target: T3, intracellular CK2α (Homo sapiens, UniProt P19784); assay: Cell-based NanoBRET assay for inhibitor binding to intracellular CK2α; details: HCT116 cells transiently transfected with CSNK2A2-NanoLuc fusion vector; Tracer K-5; 2 h; read-out: Assay 3: NanoBRET ™ assay for binding to intracellular CK2α
T3 construct: host or cells: HCT116 (ATCC CCL-247)
T3 sequence (P19784 whole entry, the tested form may be a part): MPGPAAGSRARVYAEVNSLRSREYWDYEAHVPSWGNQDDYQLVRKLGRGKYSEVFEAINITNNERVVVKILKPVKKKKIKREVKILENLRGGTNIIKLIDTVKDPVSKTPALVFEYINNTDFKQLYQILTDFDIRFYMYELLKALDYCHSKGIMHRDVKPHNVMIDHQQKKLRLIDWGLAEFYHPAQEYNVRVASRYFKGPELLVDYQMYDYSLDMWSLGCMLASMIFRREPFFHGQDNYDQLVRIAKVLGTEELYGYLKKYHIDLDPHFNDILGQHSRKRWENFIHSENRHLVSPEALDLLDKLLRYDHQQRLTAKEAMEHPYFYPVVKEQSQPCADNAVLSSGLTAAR
Description: This assay used the NanoBRET™ System (Promega), an energy transfer technique designed to measure molecular proximity in living cells. The assay measured the apparent affinity of test compounds by competitive displacement of a NanoBRET™ tracer reversibly bound to a NanoLucR luciferase CK2α fusion protein in cells. A fixed concentration of tracer was added to cells expressing the desired NanoLucR-CK2α fusion protein to generate a BRET reporter complex. […] Donor emission wavelength (450 nm) and acceptor emission wavelength (610 nm or 630 nm) were measured on the Envision (Perkin-Elmer) and BRET ratio calculated for data analysis: BRET Ratio=(Acceptorsample/Donorsample)×1,000. • 7.

Compound: FC(F)(F)Oc1ccc(CNCCCCOC2CN(c3cc(-n4cnnc4)cc4[nH]ncc34)C2)cc1Cl [Example 132, 4-((1-(6-(4H-1,2,4-triazol-4-yl)-1H-indazol-4-yl)azetidin-3-yl)oxy)-N-(3-chloro-4-(trifluoromethoxy)benzyl)butan-1-amine]
- IC50 (CK2α): 0.0109 µM
- IC50 (CLK2): 0.442 µM
- IC50 (intracellular CK2α): 0.869 µM

Compound: O=C(CCNCc1ccc(-c2ccccc2CO)c(Cl)c1)NCCCNc1cc(-n2cnnc2)cc2[nH]ncc12 [Example 58, N-(3-((6-(4H-1,2,4-triazol-4-yl)-1H-indazol-4-yl)amino)propyl)-3-(((2-chloro-2′-(hydroxymethyl)-[1,1′-biphenyl]-4-yl)methyl)amino)propanamide]
- IC50 (CK2α): 0.00028 µM
- IC50 (CLK2): 0.0409 µM
- IC50 (intracellular CK2α): 9.29 µM

Compound: O=C(CCNCc1ccc(-c2ccccc2)c(Cl)c1)NCCCNc1cc(-c2cn[nH]c2)cc2[nH]ncc12 [Example 3, N-(3-((6-(1H-pyrazol-4-yl)-1H-indazol-4-yl)amino)propyl)-3-(((2-chloro-[1,1′-biphenyl]-4-yl)methyl)amino)propanamide]
- IC50 (CK2α): 0.00077 µM
- IC50 (CLK2): 0.0334 µM
- IC50 (intracellular CK2α): 0.135 µM

Compound: Cc1c(-c2ccncc2)cc(NCCOCCCCNCc2cc(F)c(OC(F)(F)F)c(F)c2)c2cn[nH]c12 [Example 179, N-(2-(4-((3,5-difluoro-4-(trifluoromethoxy)benzyl)amino)butoxy)ethyl)-7-methyl-6-(pyridin-4-yl)-1H-indazol-4-amine]
- IC50 (CK2α): 0.0427 µM
- IC50 (CLK2): 1.93 µM
- IC50 (intracellular CK2α): 1.45 µM

Compound: FC(F)(F)Oc1ccc(CNCCc2nnc(CCNc3cc(-n4cnnc4)cc4[nH]ncc34)[nH]2)cc1Cl [Example 16, N-(2-(5-(2-((3-chloro-4-(trifluoromethoxy)benzyl)amino)ethyl)-4H-1,2,4-triazol-3-yl)ethyl)-6-(4H-1,2,4-triazol-4-yl)-1H-indazol-4-amine]
- IC50 (CK2α): 0.0141 µM
- IC50 (CLK2): 0.371 µM
- IC50 (intracellular CK2α): 3.4 µM

Compound: FC(F)(F)c1ccc2[nH]c(CNCCCCOC3CN(c4cc(-c5ccnnc5)cc5[nH]ncc45)C3)cc2c1 [Example 140, 4-((1-(6-(pyridazin-4-yl)-1H-indazol-4-yl)azetidin-3-yl)oxy)-N-((5-(trifluoromethyl)-1H-indol-2-yl)methyl)butan-1-amine]
- IC50 (CK2α): 0.0102 µM
- IC50 (CLK2): 2.03 µM
- IC50 (intracellular CK2α): 2.8 µM

Compound: Fc1cc(CNCCCCOCCNc2cc(-n3cnnc3)c(Cl)c3[nH]ncc23)cc(F)c1OC(F)(F)F [Example 182, 7-chloro-N-(2-(4-((3,5-difluoro-4-(trifluoromethoxy)benzyl)amino)butoxy)ethyl)-6-(4H-1,2,4-triazol-4-yl)-1H-indazol-4-amine]
- IC50 (CK2α): 0.0296 µM
- IC50 (CLK2): 1.82 µM
- IC50 (intracellular CK2α): 5.41 µM

Compound: Nc1cc(-c2cc(NCCCNC(=O)CCNCc3ccc(OC(F)(F)F)c(Cl)c3)c3cn[nH]c3c2)cnn1 [Example 188, N-(3-((6-(6-aminopyridazin-4-yl)-1H-indazol-4-yl)amino)propyl)-3-((3-chloro-4-(trifluoromethoxy)benzyl)amino)propanamide]
- IC50 (CK2α): 0.0005 µM
- IC50 (CLK2): 0.0529 µM
- IC50 (intracellular CK2α): 0.516 µM

Compound: N#CCc1cc(CNCCCCOC2CN(c3cc(-c4ccnnc4)cc4[nH]nnc34)C2)cc(OC(F)(F)F)c1 [Example 151, 2-(3-(((4-((1-(6-(pyridazin-4-yl)-1H-benzo[d][1,2,3]triazol-4-yl)azetidin-3-yl)oxy)butyl)amino)methyl)-5-(trifluoromethoxy)phenyl)acetonitrile]
- IC50 (CK2α): 0.187 µM
- IC50 (CLK2): 39.8 µM
- IC50 (intracellular CK2α): 19.3 µM

Compound: c1cc2[nH]c(CNCCCCOCCNc3cc(-c4cnoc4)cc4[nH]ncc34)cc2cc1OC1CCC1 [Example 98, N-(2-(4-(((5-cyclobutoxy-1H-indol-2-yl)methyl)amino)butoxy)ethyl)-6-(isoxazol-4-yl)-1H-indazol-4-amine]
- IC50 (CK2α): 0.00082 µM
- IC50 (CLK2): 0.122 µM
- IC50 (intracellular CK2α): 0.105 µM

Compound: CN(CCCCNCc1ccc(OC(F)(F)F)c(Cl)c1)CCNc1cc(-n2cnnc2)cc2[nH]ncc12 [Example 72, N1-(2-((6-(4H-1,2,4-triazol-4-yl)-1H-indazol-4-yl)amino)ethyl)-N4-(3-chloro-4-(trifluoromethoxy)benzyl)-N1-methylbutane-1,4-diamine]
- IC50 (CK2α): 0.0007 µM
- IC50 (CLK2): 0.431 µM
- IC50 (intracellular CK2α): 0.294 µM

Compound: FC(F)(F)Oc1ccc(CNCCCCOCCOc2cc(-n3cnnc3)cc3[nH]nnc23)cc1Cl [Example 123, 4-(2-((6-(4H-1,2,4-triazol-4-yl)-1H-benzo[d][1,2,3]triazol-4-yl)oxy)ethoxy)-N-(3-chloro-4-(trifluoromethoxy)benzyl)butan-1-amine]
- IC50 (CK2α): 0.306 µM
- IC50 (CLK2): 44.7 µM
- IC50 (intracellular CK2α): > 50 µM

Compound: C[C@@H](CCCOCCNc1cc(-c2cnnc(O)c2)cc2[nH]ncc12)NCc1cc(CC#N)cc(OC(F)(F)F)c1 [Example 194, (S)-2-(3-(((5-(2-((6-(6-hydroxypyridazin-4-yl)-1H-indazol-4-yl)amino)ethoxy)pentan-2-yl)amino)methyl)-5-(trifluoromethoxy)phenyl)acetonitrile]
- IC50 (CK2α): 0.00076 µM
- IC50 (CLK2): 0.195 µM
- IC50 (intracellular CK2α): 0.0149 µM

Compound: O=C(CCNCc1ccc(OC(F)(F)F)c(Cl)c1)NCCC(=O)Nc1cc(-n2cnnc2)cc2[nH]ncc12 [Example 18, N-(6-(4H-1,2,4-triazol-4-yl)-1H-indazol-4-yl)-3-(3-((3-chloro-4-(trifluoromethoxy)benzyl)amino)propanamido)propanamide]
- IC50 (CK2α): 0.00281 µM
- IC50 (CLK2): 1.62 µM
- IC50 (intracellular CK2α): 4.42 µM

Compound: C[C@@H](CCCOCCNc1cc(-c2cnns2)cc2[nH]ncc12)NCc1cc(CO)cc(OC(F)(F)F)c1 [Example 207, (S)-(3-(((5-(2-((6-(1,2,3-thiadiazol-5-yl)-1H-indazol-4-yl)amino)ethoxy)pentan-2-yl)amino)methyl)-5-(trifluoromethoxy)phenyl)methanol]
- IC50 (CK2α): 0.00171 µM
- IC50 (CLK2): 0.24 µM
- IC50 (intracellular CK2α): 0.00866 µM

Compound: Cn1c(CNCCCCOCCNc2cc(-n3cnnc3)cc3[nH]ncc23)cc2cc(C(F)(F)F)ccc21 [Example 51, N-(2-(4-(((1-methyl-5-(trifluoromethyl)-1H-indol-2-yl)methyl)amino)butoxy)ethyl)-6-(4H-1,2,4-triazol-4-yl)-1H-indazol-4-amine]
- IC50 (CK2α): 0.00071 µM
- IC50 (CLK2): 0.225 µM
- IC50 (intracellular CK2α): 0.0721 µM

Compound: FC(F)(F)c1ccc2[nH]c(CNCCCCOCCNc3cc(-c4ccnnc4)cc4[nH]ncc34)cc2c1 [Example 93, 6-(pyridazin-4-yl)-N-(2-(4-(((5-(trifluoromethyl)-1H-indol-2-yl)methyl)amino)butoxy)ethyl)-1H-indazol-4-amine]
- IC50 (CK2α): 0.00077 µM
- IC50 (CLK2): 0.569 µM
- IC50 (intracellular CK2α): 0.18 µM
